Results reported in patent US20250194651A1, “STEVIOL GLYCOSIDE CONCENTRATES AND HIGHLY SOLUBLE STEVIOL GLYCOSIDES” (CARGILL, INCORPORATED, priority 2022, published 2025).
Where two headings read alike, the source gives them in different places.

Assays:
[1] = Long-term solution stability (visual crystallization/precipitation time); assay type: physicochemical; details: for time until solution crashes out: solution of 1%
Experimental: (§1) Solutions were prepared by mixing one or more steviol glycoside component in purified water at ambient temperature. Solubility enhancers, preservatives, or ethanol were included only where expressly indicated and, when used, were added to the initial mixture prior to heating and dissolution. The mixtures were premixed and then subsequently heated via heat block or oven. Solutions took approximately one or two minutes to reach the target temperature, and then were maintained at the target temperature at least until complete dissolution of solids. Dissolution of solids was monitored visually during heating. After the heating period, fully dissolved solutions were permitted to cool to room temperature and were monitored for initial precipitation.
Solutions were further monitored for stability over periods of hours, days, weeks, and longer. Multiple techniques were utilized to evaluate stability. […] Solutions were also evaluated by recovering dissolved solids and then calculating percent recovery. If necessary, the solutions were filtered to remove undissolved material to assure that percent recovery reflected only dissolved steviol glycosides.
The rebaudioside M and A blend was further observed hourly for the first several hours, then monitored daily to evaluate long-term stability. Steviol glycoside binary blends in aqueous solvent (1%) were prepared from as an […].
Amounts of rebaudioside M and rebaudioside A in varying ratios were combined with purified water at room temperature and then heated to 85° C. with a heating block to effect dissolution. For example, for batches formulated to provide a concentration of about 10% DS, approximately 25 mg of each of rebaudioside M and rebaudioside A were dissolved in 500 μL of purified water. Samples were monitored until crystallization occurred or for at least 40 days. Solutions that remained clear and free of visible precipitation are identified in the tables below.
Steviol glycoside solutions of rebaudioside M and rebaudioside A were tested to determine if non-aqueous solvent was beneficial or detrimental to solution stability. Ingredients were combined in purified water at room temperature then heated to 85° C. with a heating block to effect dissolution. The solution was allowed to cool to ambient temperature, and then visually monitored for precipitation.

[2] = Initial solubility in aqueous solution (visual dissolution on heating); assay type: physicochemical
Experimental: as §1
Various individual steviol glycosides were tested to evaluate initial solubility in aqueous solution as well as the long-term stability in solution. Ingredients were combined in purified water at room temperature then heated to 85° C. with a heating block to effect dissolution. […]

[3] = cited from earlier work
[4] = Aqueous solubility (background values); assay type: physicochemical; details: heating in near boiling water for 2 hours
[5] = 0.49% DS, after dissolution at 85° C.
[6] = conventional formulations, aqueous solution at 25° C., WO 2017/120480 A1

In the case of rebaudioside B, the “Crystallization Time” value ([1]; 0.47% DS, heated to 85° C.) is reported as “Immediate”.

In the case of `C=C1C[C@@]23CC[C@H]4[C@@](C)(CCC[C@@]4(C)C(=O)O[C@@H]4O[C@H](CO)[C@@H](O)[C@H](O)[C@H]4O[C@@H]4O[C@@H](C)[C@H](O)[C@@H](O)[C@H]4O)[C@@H]2CC[C@]1(O[C@@H]1O[C@H](CO)[C@@H](O)[C@H](O[C@@H]2O[C@H](CO)[C@@H](O)[C@H](O)[C@H]2O)[C@H]1O[C@@H]1O[C@H](CO)[C@@H](O)[C@H](O)[C@H]1O)C3` [J, rebaudioside J], the “Crystallization Time” value ([1]; 0.53% DS, after dissolution at 85° C.) is reported as less than 2 h, the “Soluble?” value [2] is reported as “Y” and the dissolution ([2]; 1% solution, purified water, heated to 85° C.) is reported as “failed to dissolve”.

With `C=C1C[C@@]23CC[C@H]4[C@@](C)(CCC[C@@]4(C)C(=O)O[C@@H]4O[C@H](CO)[C@@H](O)[C@H](O)[C@H]4O[C@@H]4O[C@H](CO)[C@@H](O)[C@H](O)[C@H]4O)[C@@H]2CC[C@]1(O[C@@H]1O[C@H](CO)[C@@H](O)[C@H](O)[C@H]1O[C@@H]1O[C@H](CO)[C@@H](O)[C@H](O)[C@H]1O)C3` [E, rebaudioside E] the “Crystallization Time” value [1, 5] was 336 h.

In the case of `C=C1C[C@@]23CC[C@H]4[C@@](C)(CCC[C@@]4(C)C(=O)O[C@@H]4O[C@H](CO)[C@@H](O)[C@H](O)[C@H]4O)[C@@H]2CC[C@]1(O[C@@H]1O[C@H](CO)[C@@H](O)[C@H](O[C@@H]2O[C@H](CO)[C@@H](O)[C@H](O)[C@H]2O)[C@H]1O[C@@H]1O[C@H](CO)[C@@H](O)[C@H](O)[C@H]1O)C3` [rebaudioside A], the “appearance (FIG. 3, bottom)” value ([1]; about 10% DS, only rebaudioside A) is listed as “intense precipitation”, the “time until solution crashes out” value [1] is listed as no more than 72 h and the “dissolved content in aqueous solution” value ([3]; purified, in water at 25° C., WO 2012/082587 A2) is listed as “about 0.8 wt %”.

With `C=C1C[C@@]23CC[C@H]4[C@@](C)(CCC[C@@]4(C)C(=O)O[C@@H]4O[C@H](CO)[C@@H](O)[C@H](O)[C@H]4O[C@@H]4O[C@H](CO)[C@@H](O)[C@H](O)[C@H]4O)[C@@H]2CC[C@]1(O[C@@H]1O[C@H](CO)[C@@H](O)[C@H](O[C@@H]2O[C@H](CO)[C@@H](O)[C@H](O)[C@H]2O)[C@H]1O[C@@H]1O[C@H](CO)[C@@H](O)[C@H](O)[C@H]1O)C3` [D, rebaudioside D] the concentration temporarily dissolved [4] was 0.8 wt %, the “Crystallization Time” value ([1]; 0.48% DS (Reb D), 0.5% DS (Total)) was less than 2 h and the “Crystallization Time” value ([1]; 0.48% DS, after dissolution at 85° C.) was less than 2 h. The dissolution ([2]; 1% DS in water, heated to 85° C. for 20 minutes, cooled to room temperature (FIG. 1)) was “failed to dissolve”, the dissolution ([2]; 1% DS in water, heated to 85° C. for 20 minutes, cooled to room temperature (FIG. 1), listed as Reb D) was “cannot achieve dissolution” and the “dissolved content in aqueous solution” value [3, 6] was “about 0.05 wt %”.

In the case of `C=C1C[C@@]23CC[C@H]4[C@@](C)(CCC[C@@]4(C)C(=O)O[C@@H]4O[C@H](CO)[C@@H](O)[C@H](O[C@@H]5O[C@H](CO)[C@@H](O)[C@H](O)[C@H]5O)[C@H]4O[C@@H]4O[C@H](CO)[C@@H](O)[C@H](O)[C@H]4O)[C@@H]2CC[C@]1(O[C@@H]1O[C@H](CO)[C@@H](O)[C@H](O[C@@H]2O[C@H](CO)[C@@H](O)[C@H](O)[C@H]2O)[C@H]1O[C@@H]1O[C@H](CO)[C@@H](O)[C@H](O)[C@H]1O)C3` [rebaudioside M], the “time until solution crashes out” value [1] is given as “less than an hour”, the “dissolved content in aqueous solution” value [3, 6] is given as “about 0.1 wt %” and the “dissolved concentration in aqueous solution” value ([3]; room temperature, freeze or spray dried, WO '480, stability over time not reported) is given as 0.5 wt %.

In the case of `C=C1C[C@@]23CC[C@H]4[C@@](C)(CCC[C@@]4(C)C(=O)O[C@@H]4O[C@H](CO)[C@@H](O)[C@H](O[C@@H]5O[C@H](CO)[C@@H](O)[C@H](O)[C@H]5O)[C@H]4O[C@@H]4O[C@@H](C)[C@H](O)[C@@H](O)[C@H]4O)[C@@H]2CC[C@]1(O[C@@H]1O[C@H](CO)[C@@H](O)[C@H](O[C@@H]2O[C@H](CO)[C@@H](O)[C@H](O)[C@H]2O)[C@H]1O[C@@H]1O[C@H](CO)[C@@H](O)[C@H](O)[C@H]1O)C3` [N, rebaudioside N], the “Crystallization Time” value [1, 5] is reported as less than 1 h and the “Soluble?” value [2] is reported as “Y”.

In the case of `C=C1C[C@@]23CC[C@H]4[C@@](C)(CCC[C@@]4(C)C(=O)O[C@@H]4O[C@H](CO)[C@@H](O)[C@H](O[C@@H]5O[C@H](CO)[C@@H](O)[C@H](O)[C@H]5O)[C@H]4O[C@@H]4O[C@H](CO)[C@@H](O)[C@H](O)[C@H]4O)[C@@H]2CC[C@]1(O[C@@H]1O[C@H](CO)[C@@H](O)[C@H](O[C@@H]2O[C@H](CO)[C@@H](O)[C@H](O)[C@H]2O)[C@H]1O[C@@H]1O[C@H](CO)[C@@H](O)[C@H](O)[C@H]1O)C3` [M (RM01), rebaudioside M], the “Crystallization Time” value ([1]; 0.33% DS, after dissolution at 85° C.) is reported as less than 72 h and the “Soluble?” value [2] is reported as “Y”.
